We go through 27 compounds from patent US20250034110A1, “LPAR1 ANTAGONISTS AND USES THEREOF” (Pipeline Therapeutics, Inc., priority 2021, published 2025).

Read-outs that look alike come from different tables or passages of the source.

In general, IC50 refers to the concentration at which inhibition is half-maximal.

The assay concerns the target human LPAR1 (Homo sapiens, UniProt Q92633). Kind of assay: In vitro functional assay of lysophosphatidic acid receptor 1 activity (calcium flux). Type of assay: cell-based. (Calcium assays in cells follow changes in intracellular calcium, usually with a dye or a luminescent sensor.)
[1] abbreviates: B103 cells stably expressing human LPAR1, calcium flux (Fluo-4 NW) after lysophosphatidic acid (18:1) at EC80, 100 pM to 10 μM, read-out: LPAR1 IC50.

human LPAR1, sequence (Q92633 whole entry): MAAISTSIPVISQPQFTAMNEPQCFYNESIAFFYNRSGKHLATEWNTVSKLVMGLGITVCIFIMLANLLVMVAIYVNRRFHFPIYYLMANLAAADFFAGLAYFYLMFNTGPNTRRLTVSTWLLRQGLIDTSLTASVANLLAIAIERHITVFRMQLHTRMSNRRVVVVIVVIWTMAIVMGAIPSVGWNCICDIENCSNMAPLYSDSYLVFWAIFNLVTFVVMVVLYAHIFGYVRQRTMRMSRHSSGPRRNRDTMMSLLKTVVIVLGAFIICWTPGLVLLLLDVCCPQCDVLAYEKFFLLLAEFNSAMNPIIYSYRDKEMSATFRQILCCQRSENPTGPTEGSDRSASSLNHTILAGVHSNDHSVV

For the compound `COc1ccc(NC(=O)N(c2ccccc2C(C)C)[C@H]2CCC[C@H](C(=O)O)C2)c(OC(F)F)n1` [Example 146], under setting [1], the IC50 is 10 to 100 nM.
As for `Cc1ccc(NC(=O)N(CC2COC2)c2ccccc2C(C)C)c(OC(F)F)n1` [Example 15, 3-(2-(difluoromethoxy)-6-methylpyridin-3-yl)-1-(2-isopropylphenyl)-1-(oxetan-3-ylmethyl)urea], under setting [1], the IC50 is 10 to 100 nM.
Regarding `CC(=O)N1CCC(N(C(=O)Nc2ccc(C)[n+]([O-])c2OC(F)F)c2ccccc2C(C)C)CC1` [Example 197, 3-(3-(1-acetylpiperidin-4-yl)-3-(2-isopropylphenyl)ureido)-2-(difluoromethoxy)-6-methylpyridine 1-oxide], the IC50 (LPAR1 IC50) is > 1000 nM.
In the case of `COC[C@H](C)Oc1nc(C)ccc1NC(=O)N(c1ccccc1C(C)C)[C@H]1CC[C@H](C(=O)O)CC1` [Example 316, trans-4-(1-(2-isopropylphenyl)-3-(2-(((S)-1-methoxypropan-2-yl)oxy)-6-methylpyridin-3-yl)ureido)cyclohexane-1-carboxylic acid], the half-inhibitory concentration (IC50) under setting [1] was in the range of 10 to 100 nM.
On the same count and under the same terms, to `COC(=O)C1CC(CN(C(=O)Nc2ccc(C)nc2OC(F)F)c2ccccc2C(C)C)C1` (stereo not drawn) [Example 169] belongs 10 to 100 nM; to `COCC(=O)N1CC(N(C(=O)Nc2ccc(C)nc2OC(F)F)c2ccccc2C(C)C)C1` [Example 82, 3-(2-(difluoromethoxy)-6-methylpyridin-3-yl)-1-(2-isopropylphenyl)-1-(1-(2-methoxyacetyl)azetidin-3-yl)urea], 10 to 100 nM.
Turning to `Cc1ccc(NC(=O)N(c2ccccc2C(C)C)C2CC3(CCC(C(=O)O)CC3)C2)c(OC(F)F)n1` (stereo not drawn) [Example 249], under setting [1], the IC50 lay within 10 to 100 nM.
In the case of `Cc1ccc(NC(=O)N(c2ccccc2C(C)C)C2CCC(=O)CC2)c(OC(F)F)n1` [Example 243], the IC50 under setting [1] is 100 to 1000 nM.
With `Cc1ccc(NC(=O)N(c2ccccc2C(C)C)[C@H]2CC[C@@H](C#N)CC2)c(OC(F)F)n1` [Example 240, 1-((1s,4s)-4-cyanocyclohexyl)-3-(2-(difluoromethoxy)-6-methylpyridin-3-yl)-1-(2-isopropylphenyl)urea], the IC50 under setting [1] was in the range of 100 to 1000 nM.
On to `Cc1ccc(NC(=O)N(c2ccccc2C(C)C)C2CCS(=O)(=O)CC2)c(OC(F)F)n1` [Example 20, 3-(2-(difluoromethoxy)-6-methylpyridin-3-yl)-1-(1,1-dioxidotetrahydro-2H-thiopyran-4-yl)-1-(2-isopropylphenyl)urea], for which the IC50 under setting [1] was in the range of 10 to 100 nM.
`Cc1ccc(NC(=O)N(c2ccccc2C(C)C)[C@H]2CC[C@](C)(C(=O)O)CC2)c(OC(F)F)n1` [Example 309]: under setting [1], the IC50 was < 10 nM.
For `Cc1ccc(NC(=O)N(CC23CC(C(=O)O)(C2)C3(F)F)c2ccccc2C(C)C)c(OC(F)F)n1` [Example 235], the 50% inhibitory concentration (IC50) under setting [1] lay within 10 to 100 nM.
As to `CC(=O)N1CCC(N(C(=O)Nc2cnc(C(F)(F)F)cn2)c2ccccc2C(C)C)CC1` [Example 132], under “LPAR1 IC50”, the half-inhibitory concentration (IC50) was > 1000 nM.
In the case of `CCOc1nc(C)ccc1NC(=O)N(c1ccccc1C(C)C)C1CCN(C(C)=O)CC1` [Example 105], the IC50 (LPAR1 IC50) was 100 to 1000 nM.
Same read-out and setting: as for `COc1ccc(NC(=O)N(c2cccc(C)c2C)C2CCN(C(C)=O)CC2)c(OC(F)F)n1` [Example 42, 1-(1-acetylpiperidin-4-yl)-3-(2-(difluoromethoxy)-6-methoxypyridin-3-yl)-1-(2,3-dimethylphenyl)urea], the figure is 100 to 1000 nM.
`COc1ccc(NC(=O)N(c2ccccc2C(C)C)[C@H]2C[C@@]3(C[C@@H]3C(=O)O)C2)c(OC(F)F)n1` [Example 149]: the IC50 under setting [1] lay in the range of 10 to 100 nM.
As for `CC(C)c1ccccc1N(C(=O)Nc1ccc(Cl)c(F)c1)[C@H]1CC[C@H](C(=O)O)CC1` [Example 158, trans-4-(3-(4-chloro-3-fluorophenyl)-1-(2-isopropylphenyl)ureido)cyclohexane-1-carboxylic acid], under setting [1], the concentration for half-maximal inhibition (IC50) was 10 to 100 nM.
As for `CC(=O)N1CCC(N(C(=O)Nc2ncc(Br)cc2C=O)c2ccccc2C(C)C)CC1` [Example 140], the half-maximal inhibitory concentration (IC50) (LPAR1 IC50) was 100 to 1000 nM.
As for `Cc1nc(OC(F)F)c(NC(=O)N(c2ccccc2C(C)C)[C@H]2CC[C@@H](CC(=O)O)CC2)cc1F` [Example 222], the IC50 under setting [1] lay in the range of 10 to 100 nM.
The same measure, in the same setting: as for `COC(=O)N1CC(N(C(=O)Nc2ccc(C)nc2OC(F)F)c2ccccc2C(C)C)C1` [Example 77, methyl 3-(3-(2-(difluoromethoxy)-6-methylpyridin-3-yl)-l-(2-isopropylphenyl)ureido)azetidine-1-carboxylate], the figure is 10 to 100 nM.
For `CNC(=O)N1CCC(N(C(=O)Nc2ccc(OC)nc2OC(F)F)c2ccccc2C(C)C)CC1` [Example 64, 4-(3-(2-(difluoromethoxy)-6-methoxypyridin-3-yl)-1-(2-isopropylphenyl)ureido)-N-methylpiperidine-1-carboxamide], the concentration for half-maximal inhibition (IC50) (LPAR1 IC50) was 10 to 100 nM.
As to `Cc1ccc(NC(=O)N(c2ccccc2C(C)C)C2CCC3(CC2)COC3)c(OC(F)F)n1` [Example 236, 3-(2-(difluoromethoxy)-6-methylpyridin-3-yl)-1-(2-isopropylphenyl)-1-(2-oxaspiro[3.5]nonan-7-yl)urea], the 50% inhibitory concentration (IC50) under setting [1] is 100 to 1000 nM.
Still for that read-out and setting: as for `COc1ccc(NC(=O)N(CC23CC(C(=O)O)(C2)C3(F)F)c2ccccc2C(C)C)c(OC(F)F)n1` [Example 234], the figure is 10 to 100 nM; as for `CC(C)c1ccccc1N(C(=O)Nc1ccc(Cl)cn1)[C@H]1C[C@@H](CC(=O)O)C1` [Example 306], 100 to 1000 nM; as for `Cc1ccc(NC(=O)N(c2ccccc2C(C)C)C2CN(C(=O)OC(C)(C)C)C2)c(OC(F)F)n1` [Example 2, tert-butyl 3-(3-(2-(difluoromethoxy)-6-methylpyridin-3-yl)-1-(2-isopropylphenyl)ureido)azetidine-1-carboxylate], 100 to 1000 nM.
`Cc1ccc(NC(=O)N(C[C@H]2CC[C@@H](C(=O)O)CC2)c2ccccc2C(C)C)c(OC(F)F)n1` [Example 172]: the 50% inhibitory concentration (IC50) under setting [1] was in the range of 10 to 100 nM.
Regarding `Cc1ccc(NC(=O)N(c2ccccc2C(C)C)[C@H]2C[C@@H](CO)C2)c(OC(F)F)n1` [Example 193, 3-(2-(difluoromethoxy)-6-methylpyridin-3-yl)-l-((1 s,3s)-3-(hydroxymethyl)cyclobutyl)-1-(2-isopropylphenyl)urea], the IC50 under setting [1] was in the range of 100 to 1000 nM.
